As a reminder, the IC50 is the concentration needed to halve the response being measured.

In one experiment the target is T1, PARP (Homo sapiens, UniProt P09874).
T1 construct: purchased Trevigen 4684-096-K HT (kit); 4684-096-01 (PARP enzyme)
Put plainly: PARP ELISA (ELISA-based colorimetric PARP/Apoptosis Assay kit, Trevigen). The class given is biochemical. To be noted: pIC50=-log10 IC50, IC50 in mol/L; inhibition of PARP catalytic activity. On the procedure:
Inhibition Constant (IC50) from PARP ELISA
After 10 minutes of catalysis the reaction is quenched by solvent aspiration followed by irrigation of the assay wells 4 times with phosphate buffered saline (PBS) containing 0.1% t-Octylphenoxypolyethoxyethanol (Triton® X-100). Mouse Anti-poly ADP ribose (PAR) monoclonal antibody, goat antimouse immunoglobulin G (IgG)-horse radish peroxidase (HRP) conjugate and HRP substrate are added according to the manufacture's specifications to generate a colorimetric signal proportional to PARP catalytic activity.
(In general: In an ELISA, binding on a coated surface is turned into a signal by an enzyme label.)

Experiment [1] addresses T2, catalytic domain of Human PARP (Homo sapiens, UniProt P09874).
T2 construct: The catalytic domain of Human PARP was cloned and prepared; made in house
Put plainly: Biacore surface plasmon resonance affinity assay. It counts as binding. The following applies: pKD=-log10 KD, KD in mol/L; Biacore T100, 25° C.; read-out: pKD (converted). Put shortly:
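Human PARP catalytic domain amine-coupled to CM5 chip; compounds run as 2-fold series in HBS-P with 1% DMSO, 0.5 mM TCEP, 5 mM MgCl2.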
Background: Surface plasmon resonance follows binding to a sensor surface in real time, without labels.

The test system of a further experiment is Jurkat cell line. Put plainly: PARP cellular chemopotentiation assay (MTS, with/without TMZ). The class given is cell-based. To be noted: Chemopotentiation factor: ratio of EC50 values of Jurkat cells co-treated without and with 100 μM TMZ; 96 hours. The method, then:
Potentiation Factor (PF50) Determination from PARP Cellular Chemopotentiation Assay
Jurkat cell line was maintained according to the supplier (American Type Culture Collection (Rockville, Md.)). Cells were seeded in 96-well tissue culture microplates at 10,000 cells per well and cultured for 24 hours prior to addition of compounds, TMZ (Temozolomide) or DMSO (dimethylsulfoxide) vehicle. After 96 hours of treatment, the conversion of MTS ([3-(4,5-dimethylthiazol-2-yl)-5-(3-carboxymethoxyphenyl)-2-(4-sulfophenyl)-2H-tetrazolium, inner salt], Promega, Madison, Wis.) by metabolically active cells was determined through measuring the OD490 nm with a Spectramax microplate reader (Molecular Devices, San Diego, Calif.). To generate concentration-response curves, cells were treated in duplicate with a range of serial compound dilutions (final DMSO concentration was 0.5%) in the absence or presence of 100 μM TMZ chemoreagent. The percentage of viable cells per well was calculated by correction for background and normalizing against DMSO-treated cells. EC50 values for inhibition of cell viability were calculated using XLfit4 MicroSoft Excel curve-fitting software. Chemopotentiation factor PF50 was calculated as the ratio of EC50 values of cells co-treated without and with TMZ, respectively.

Bounds are passed on as bounds.

T2 sequence (P09874 788-1014 limits assumed): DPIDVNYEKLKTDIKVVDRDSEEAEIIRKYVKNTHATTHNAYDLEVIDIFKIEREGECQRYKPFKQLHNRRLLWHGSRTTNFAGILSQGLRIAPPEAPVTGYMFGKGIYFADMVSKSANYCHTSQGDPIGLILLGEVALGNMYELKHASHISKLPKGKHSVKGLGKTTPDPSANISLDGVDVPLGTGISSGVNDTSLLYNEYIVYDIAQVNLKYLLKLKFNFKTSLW
T1 sequence (P09874 whole entry): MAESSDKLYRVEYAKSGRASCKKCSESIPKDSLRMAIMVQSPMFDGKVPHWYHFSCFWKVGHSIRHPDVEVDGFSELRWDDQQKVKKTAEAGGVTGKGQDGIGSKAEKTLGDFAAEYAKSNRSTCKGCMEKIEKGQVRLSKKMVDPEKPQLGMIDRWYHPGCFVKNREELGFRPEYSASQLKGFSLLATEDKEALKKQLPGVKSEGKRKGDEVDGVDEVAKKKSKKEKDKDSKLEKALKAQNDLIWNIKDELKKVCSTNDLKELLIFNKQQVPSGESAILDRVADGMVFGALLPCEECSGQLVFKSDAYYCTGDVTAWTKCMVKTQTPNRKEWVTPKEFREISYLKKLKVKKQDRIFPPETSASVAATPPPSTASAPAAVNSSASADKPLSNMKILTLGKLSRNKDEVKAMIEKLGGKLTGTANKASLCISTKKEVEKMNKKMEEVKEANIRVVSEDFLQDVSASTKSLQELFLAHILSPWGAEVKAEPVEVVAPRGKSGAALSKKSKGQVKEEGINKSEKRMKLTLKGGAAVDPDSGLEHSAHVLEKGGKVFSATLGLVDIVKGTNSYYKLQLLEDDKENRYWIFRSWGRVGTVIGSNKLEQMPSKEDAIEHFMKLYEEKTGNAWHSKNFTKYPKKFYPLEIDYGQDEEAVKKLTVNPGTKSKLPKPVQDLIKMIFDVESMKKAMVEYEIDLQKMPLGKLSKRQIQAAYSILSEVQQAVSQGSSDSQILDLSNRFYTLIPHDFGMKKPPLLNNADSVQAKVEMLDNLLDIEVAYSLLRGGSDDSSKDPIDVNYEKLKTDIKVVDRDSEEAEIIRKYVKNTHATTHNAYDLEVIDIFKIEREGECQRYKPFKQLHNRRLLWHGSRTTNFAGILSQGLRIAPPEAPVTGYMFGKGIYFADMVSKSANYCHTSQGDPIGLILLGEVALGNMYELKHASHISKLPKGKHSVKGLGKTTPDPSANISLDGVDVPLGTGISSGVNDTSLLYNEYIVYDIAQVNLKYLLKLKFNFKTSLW

As to `COc1cc(CN2CCN(c3ccc(C(=O)O)cc3)CC2)cc2c1OC(C)C(=O)N2` (stereo not drawn) [Compound 160, 4-(4-((8-Methoxy-2-methyl-3-oxo-3,4-dihydro-2H-benzo[b][1,4]oxazin-6-yl)methyl)piperazin-1-yl)benzoic acid], at PARP, the IC50 is not below 0.126 µM. For the same molecule, the Kd in experiment [1] was 0.126 to 1 µM.

`CCOC(=O)c1ccc(N2CCN(Cc3cc4c(c(OC)c3)OC(C)C(=O)N4)CC2)cc1` (stereo not drawn) [Compound 159, Ethyl 4-(4-((8-methoxy-2-methyl-3-oxo-3,4-dihydro-2H-benzo[b][1,4]oxazin-6-yl)methyl)piperazin-1-yl)benzoate] had an IC50 against PARP not below 0.126 µM. Moreover, in experiment [1], the Kd is less than 0.0316 µM.

Regarding `CC1Oc2c(F)cc(CN3CCN(c4ccc(C(=O)O)cc4)CC3)cc2NC1=O` (stereo not drawn) [Compound 270, 4-(4-((8-Fluoro-2-methyl-3-oxo-3,4-dihydro-2H-benzo[b][1,4]oxazin-6-yl)methyl)piperazin-1-yl)benzoic acid], the IC50 on PARP is not below 0.126 µM. Besides, the Kd in experiment [1] is 1.26 to 10 µM.

As to `CCNC(=O)c1ccc(N2CCN(Cc3cc4c(c(OC(F)F)c3)OC(C)C(=O)N4)CC2)c(Cl)c1` (stereo not drawn) [Compound 405, 3-Chloro-4-(4-((8-(difluoromethoxy)-2-methyl-3-oxo-3,4-dihydro-2H-benzo[b][1,4]oxazin-6-yl)methyl)piperazin-1-yl)-N-ethylbenzamide], the PF50 in the experiment with Jurkat cell line was found to be 5.3.

Regarding `CC1Oc2ccc(CN(C)Cc3ccc(Cl)cc3)cc2NC1=O` (stereo not drawn) [Compound 70, 6-(((4-Chlorobenzyl)(methyl)amino)methyl)-2-methyl-2H-benzo[b][1,4]oxazin-3(4H)-one], in the experiment with Jurkat cell line, the PF50 was 1.0-1.9.

As for `CC1Oc2ccc(CN3Cc4ccc([N+](=O)[O-])cc4C3)cc2NC1=O` (stereo not drawn) [Compound 240, 2-Methyl-6-((5-nitroisoindolin-2-yl)methyl)-2H-benzo[b][1,4]oxazin-3(4H)-one], the IC50 at PARP is not below 0.126 µM. Besides, in experiment [1], the Kd is 0.126 to 1 µM.

`COc1cc(CN2CCN(c3ccc(C(=O)NC4CC4)cc3C)CC2)cc2c1OC(C)C(=O)N2` (stereo not drawn) [Compound 364, N-Cyclopropyl-4-{4-[(8-methoxy-2-methyl-3-oxo-3,4-dihydro-2H-1,4-benzoxazin-6-yl)methyl]piperazin-1-yl}-3-methylbenzamide]: in the experiment with Jurkat cell line, the PF50 worked out at 4365.

Turning to `CCOC(=O)c1ccc(N2CCN(Cc3cc(F)c4c(c3)NC(=O)C(C)O4)CC2)cc1` (stereo not drawn) [Compound 269, Ethyl 4-(4-((8-fluoro-2-methyl-3-oxo-3,4-dihydro-2H-benzo[b][1,4]oxazin-6-yl)methyl)piperazin-1-yl)benzoate], the 50% inhibitory concentration (IC50) on PARP was not below 0.126 µM. The Kd in experiment [1] is 0.126 to 1 µM.

The molecule `CC1Oc2ccc(CC3CCN(c4ccc(C(=O)NC5CC5)cc4)CC3)cc2NC1=O` (stereo not drawn) [Compound 392, N-Cyclopropyl-4-(4-((2-methyl-3-oxo-3,4-dihydro-2I-benzo[b][1,4]oxazin-6-yl)methyl)piperidin-1-yl)benzamide] gave an IC50 on PARP of more than 0.2 µM.

On PARP, `CNC(=O)c1ccc(N2CCC(Oc3ccc4c(c3)NC(=O)C(C)O4)CC2)cc1` (stereo not drawn) [Compound 395, N-Methyl-4-(4-(2-methyl-3-oxo-3,4-dihydro-2H-benzo[b][1,4]oxazin-6-yloxy)piperidin-1-yl)benzamide] had an IC50 of more than 0.2 µM.

For the molecule `CC1Oc2c(F)cc(CN3CCN(c4ccc(C(=O)O)cn4)CC3)cc2NC1=O` (stereo not drawn) [Compound 313, 6-(4-((8-Fluoro-2-methyl-3-oxo-3,4-dihydro-2H-benzo[b][1,4]oxazin-6-yl)methyl)piperazin-1-yl)nicotinic acid], the IC50 against PARP is more than 0.2 µM.

On to `CC1Oc2ccc(CN3CCN(c4ccc(C(=O)O)cn4)CC3)cc2NC1=O` (stereo not drawn) [Compound 233, 6-(4-((2-Methyl-3-oxo-3,4-dihydro-2H-benzo[b][1,4]oxazin-6-yl)methyl)piperazin-1-yl)nicotinic acid], for which, at PARP, the concentration for half-maximal inhibition (IC50) is not below 0.126 µM. Further, in experiment [1], the Kd was 1.26 to 10 µM.

`Cc1cc(CN2CC=C(c3ccc(Cl)cc3)CC2)cc2c1OC(C)C(=O)N2` (stereo not drawn) [Compound 263, 6-((4-(4-Chlorophenyl)-5,6-dihydropyridin-1(2H)-yl)methyl)-2,8-dimethyl-2H-benzo[b][1,4]oxazin-3(4H)-one] gave an IC50 at PARP not below 0.126 µM. Moreover, the Kd in experiment [1] was more than 10 µM.

For `CC1Oc2c(F)cc(CN3CC=C(c4ccc(Cl)cc4)CC3)cc2NC1=O` (stereo not drawn) [Compound 268, 6-((4-(4-Chlorophenyl)-5,6-dihydropyridin-1(2H)-yl)methyl)-8-fluoro-2-methyl-2H-benzo[b][1,4]oxazin-3(4H)-one], the half-maximal inhibitory concentration (IC50) against PARP is not below 0.126 µM. Moreover, the Kd in experiment [1] was more than 10 µM.

As for `CC1Oc2ccc(CN3CCN(c4ccc(S(C)(=O)=O)cc4)CC3)cc2NC1=O` (stereo not drawn) [Compound 227, 2-Methyl-6-((4-(4-(methylsulfonyl)phenyl)piperazin-1-yl)methyl)-2H-benzo[b][1,4]oxazin-3(4H)-one], in the experiment on Jurkat cell line, the PF50 is listed as 1.0-1.9.

With `CC1Oc2c(Cl)cc(CN3CCN(c4ccc(C(=O)NC5CC5)cc4)CC3)cc2NC1=O` (stereo not drawn) [Compound 311, 4-(4-((8-Chloro-2-methyl-3-oxo-3,4-dihydro-2H-benzo[b][1,4]oxazin-6-yl)methyl)piperazin-1-yl)-N-cyclopropylbenzamide], the half-inhibitory concentration (IC50) on PARP is 0.0398 µM.

The molecule `CC1Oc2ccc(CN3CCN(c4ccc(NC(=O)c5ccccc5)cc4)CC3)cc2NC1=O` (stereo not drawn) [Compound 248, N-(4-(4-((2-Methyl-3-oxo-3,4-dihydro-2H-benzo[b][1,4]oxazin-6-yl)methyl)piperazin-1-yl)phenyl)benzamide] had an IC50 at PARP not below 0.126 µM.

With `CC1Oc2c(Cl)cc(CN3CCN(c4ccc(C(=O)O)cc4)CC3)cc2NC1=O` (stereo not drawn) [Compound 307, 4-(4-((8-Chloro-2-methyl-3-oxo-3,4-dihydro-2H-benzo[b][1,4]oxazin-6-yl)methyl)piperazin-1-yl)benzoic acid], the half-maximal inhibitory concentration (IC50) against PARP is more than 0.2 µM.

`Cc1cc2c(cc1CN1CCC(c3ccc(Cl)cc3)CC1)NC(=O)C(C)O2` (stereo not drawn) [Compound 322, 6-((4-(4-Chlorophenyl)piperidin-1-yl)methyl)-2,7-dimethyl-2H-benzo[b][1,4]oxazin-3(4H)-one] had an IC50 on PARP of more than 0.2 µM.

For `CCC(=O)Nc1ccc(N2CCN(Cc3ccc4c(c3)NC(=O)C(C)O4)CC2)cc1` (stereo not drawn) [Compound 246, N-(4-(4-((2-Methyl-3-oxo-3,4-dihydro-2H-benzo[b][1,4]oxazin-6-yl)methyl)piperazin-1-yl)phenyl)propionamide], the IC50 against PARP was not below 0.126 µM.

In turn, `CC1Oc2cc(F)c(CN3CCN(c4ccc(C(=O)O)cc4)CC3)cc2NC1=O` (stereo not drawn) [Compound 334, 4-(4-((7-Fluoro-2-methyl-3-oxo-3,4-dihydro-2H-benzo[b][1,4]oxazin-6-yl)methyl)piperazin-1-yl)benzoic acid] had an IC50 on PARP of more than 0.2 µM.

`CCNC(=O)c1ccc(N2CCN(Cc3cc(F)c4c(c3)NC(=O)C(C)O4)CC2)nc1` (stereo not drawn) [Compound 315, N-Ethyl-6-(4-((8-fluoro-2-methyl-3-oxo-3,4-dihydro-2H-benzo[b][1,4]oxazin-6-yl)methyl)piperazin-1-yl)nicotinamide] had a concentration for half-maximal inhibition (IC50) against PARP of 0.0501 µM.

In turn, `CC1Oc2ccc(CN3Cc4ccccc4C3)cc2NC1=O` (stereo not drawn) [Compound 239, 6-(Isoindolin-2-ylmethyl)-2-methyl-2H-benzo[b][1,4]oxazin-3(4H)-one] had an IC50 against PARP not below 0.126 µM. Further, in experiment [1], the Kd is 0.126 to 1 µM.

In the case of `CC(C)NC(=O)c1ccc(N2CCN(Cc3cc(F)c4c(c3)NC(=O)C(C)O4)CC2)nc1` (stereo not drawn) [Compound 316, 6-(4-((8-Fluoro-2-methyl-3-oxo-3,4-dihydro-2H-benzo[b][1,4]oxazin-6-yl)methyl)piperazin-1-yl)-N-isopropylnicotinamide], the half-inhibitory concentration (IC50) at PARP was 0.1 µM.

`CCOC(=O)c1ccc(N2CCC(Oc3ccc4c(c3)NC(=O)C(C)O4)CC2)cc1` (stereo not drawn) [Compound 394, Ethyl 4-(4-(2-methyl-3-oxo-3,4-dihydro-2H-benzo[b][1,4]oxazin-6-yloxy)piperidin-1-yl)benzoate]: the IC50 on PARP was more than 0.2 µM.

Regarding `Cc1c(CN2CCN(c3ccc(Cl)cc3)CC2)ccc2c1NC(=O)C(C)O2` (stereo not drawn) [Compound 325, 6-((4-(4-Chlorophenyl)piperazin-1-yl)methyl)-2,5-dimethyl-2H-benzo[b][1,4]oxazin-3(4H)-one], the IC50 at PARP was more than 0.2 µM.

Turning to `CCN(C)C(=O)c1ccc(N2CCN(Cc3ccc4c(c3)NC(=O)C(C)O4)CC2)cc1` (stereo not drawn) [Compound 379, N-Ethyl-N-methyl-4-(4-((2-methyl-3-oxo-3,4-dihydro-2H-benzo[b][1,4]oxazin-6-yl)methyl)piperazin-1-yl)benzamide], the IC50 on PARP was more than 0.2 µM.
